ChEMBL document CHEMBL1133207, “Syntheses and antifilarial profile of 7-chloro-4-(substituted amino) quinolines: a new class of antifilarial agents” (2000)
Calls of active or inactive are those of the source. No cut-off for these calls is given here.

How the values were obtained:
[1] = In vivo macrofilaricidal activity against Acanthocheilonema viteae infection in Mastomys natalensis at 200 mg/kg for 5 days after peroral administration; format: functional; conditions: route oral
[2] = In vivo microfilariacidal activity against Acanthocheilonema viteae infection in Mastomys natalensis at 200 mg/kg for 5 days after peroral administration; format: functional; conditions: route oral
[3] = The compound was evaluated for sterilization effect on female Acanthocheilonema viteae in Mastomys natalensis; format: functional, Mus musculus; set-up: concentration or dose not given beside the values
[4] = test system: Mus musculus; experiment: In vivo macrofilaricidal activity against Acanthocheilonema viteae infection in Mastomys natalensis at 200 mg/kg for 5 days after peroral administration; Inactive; format: functional, organism-based; set-up: dose 200 mg/kg
[5] = test system: Mus musculus; experiment: In vivo microfilariacidal activity against Acanthocheilonema viteae infection in Mastomys natalensis at 200 mg/kg for 5 days after peroral administration; Inactive; format: functional, organism-based; set-up: dose 200 mg/kg
[6] = species on record: Mus musculus; experiment: The compound was evaluated for sterilization effect on female Acanthocheilonema viteae in Mastomys natalensis; Inactive; format: functional, organism-based

SMILES | Reduction [1] [%] | Reduction [2] [%] | Reduction [3] [%] | Reduction [4] | Reduction [5] | Reduction [6]
CCN(CC)C(=O)N1CCN(C)CC1.O=C(O)CC(O)(CC(=O)O)C(=O)O [DIETHYLCARBAMAZINE CITRATE] | 0 | 90 | 0 | – | – | –
CC(C)(C)OC(=O)N1CCCC1C(=O)N1CCN(CCNc2ccnc3cc(Cl)ccc23)CC1 (stereo not drawn) | – | – | – | inactive | inactive | inactive
O=[N+]([O-])c1cc2c(NCCO)ccnc2cc1Cl | 58 | 0 | 0 | – | – | –
O=C(C1CCCN1)N1CCN(CCNc2ccnc3cc(Cl)ccc23)CC1 (stereo not drawn) | – | – | – | inactive | inactive | inactive
CCC(C)C(N)C(=O)N1CCN(CCNc2ccnc3cc(Cl)ccc23)CC1 (stereo not drawn) | – | – | – | inactive | inactive | inactive
N#Cc1ccc(OCCNc2ccnc3cc(Cl)ccc23)cc1 | 56 | 0 | 0 | – | – | –
CC(C)(C)OC(=O)NCC(=O)N1CCN(CCNc2ccnc3cc(Cl)ccc23)CC1 | 0 | 0 | 63 | – | – | –
Clc1ccc2c(NCCN3CCN(c4ccccn4)CC3)ccnc2c1 | – | – | – | inactive | inactive | inactive
O=[N+]([O-])c1ccc(NNc2ccnc3cc(Cl)ccc23)cc1 | 78 | 41 | 50 | – | – | –
NCC(=O)N1CCN(CCNc2ccnc3cc(Cl)ccc23)CC1 | – | – | – | inactive | inactive | inactive
OCCNc1ccnc2cc(Cl)ccc12 | 22 | 86 | 0 | – | – | –
CC(N)C(=O)N1CCN(CCNc2ccnc3cc(Cl)ccc23)CC1 (stereo not drawn) | 0 | 0 | 100 | – | – | –
CC(NC(=O)OC(C)(C)C)C(=O)N1CCN(CCNc2ccnc3cc(Cl)ccc23)CC1 (stereo not drawn) | – | – | – | inactive | inactive | inactive
Clc1ccc2c(NCc3ccco3)ccnc2c1 | – | – | – | inactive | inactive | inactive
CC(C)(C)OC(=O)NC(Cc1ccccc1)C(=O)N1CCN(CCNc2ccnc3cc(Cl)ccc23)CC1 (stereo not drawn) | 0 | 0 | 50 | – | – | –
Clc1ccc2c(NCCN3CCNCC3)ccnc2c1 | – | – | – | inactive | inactive | inactive
NC(Cc1ccccc1)C(=O)N1CCN(CCNc2ccnc3cc(Cl)ccc23)CC1 (stereo not drawn) | – | – | – | inactive | inactive | inactive
ClCCNc1ccnc2cc(Cl)ccc12 | – | – | – | inactive | inactive | inactive
CCC(C)C(NC(=O)OC(C)(C)C)C(=O)N1CCN(CCNc2ccnc3cc(Cl)ccc23)CC1 (stereo not drawn) | – | – | – | inactive | inactive | inactive
O=C(O)C(CCCCNc1ccnc2cc(Cl)ccc12)Nc1ccnc2cc(Cl)ccc12 (stereo not drawn) | 0 | 85 | 0 | – | – | –
O=[N+]([O-])c1ccc(OCCNc2ccnc3cc(Cl)ccc23)cc1 | – | – | – | inactive | inactive | inactive
